Source: patent US10357576B2, “18F-labelled folate/antifolate analogues” (MERCK & CIE, priority 2012, dated 2019)

Biological target: T1, Folate receptor (Homo sapiens, UniProt P15328)
T1 construct: host or cells: KB cells (human cervical carcinoma cell line, HeLa subclone)
Test: Folate receptor binding affinity (displacement of ^3H-folic acid on KB tumor cells)
Settings: ^3H-folic acid 0.84 nM, 4° C., 30 min, read-out: FR-binding affinity IC50
Description: Cell Culture: KB cells (human cervical carcinoma cell line, HeLa subclone; ACC-136) were purchased from the German Collection of Microorganisms and Cell Cultures (DSMZ, Braunschweig, Germany). The cells were cultured as monolayers at 37° C. in a humidified atmosphere containing 5% CO2. […] FFRPMI medium was supplemented with 10% heat-inactivated fetal calf serum (FCS, as the only source of folate), L-glutamine and antibiotics (penicillin/streptomycin/fungizone). Routine culture treatment was performed twice a week with EDTA (2.5 mmol/l) in PBS.
After incubation, Eppendorf tubes containing the cell suspensions were centrifuged at 4° C. for 5 min and the supernatant was removed. By addition of 0.5 ml of NaOH 1 M the cell pellets were lysed and transferred into scintillation tubes containing 5 ml of scintillation cocktail (Ultima Gold; Perkin Elmer). Radioactivity was measured using a liquid scintillation analyzer (Tri-Carb 1900 TR, Packard) and an inhibitory concentration of 50% was determined from displacement curves using GraphPad Prism (version 5.01) software.

T1 sequence (P15328 25-234): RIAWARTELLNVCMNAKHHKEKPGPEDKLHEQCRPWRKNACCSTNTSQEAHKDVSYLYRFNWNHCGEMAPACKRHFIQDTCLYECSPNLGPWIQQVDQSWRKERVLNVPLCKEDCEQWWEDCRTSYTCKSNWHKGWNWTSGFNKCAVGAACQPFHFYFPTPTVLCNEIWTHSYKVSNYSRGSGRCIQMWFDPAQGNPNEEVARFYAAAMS

For `Nc1nc2ncc(CNc3ccc(C(=O)N[C@@H](CCC(=O)O)C(=O)O)c(F)n3)nc2c(=O)[nH]1` [3′-aza-2′-fluorofolic acid], the IC50 was 0.81 ± 0.18 nM.
